Assay [1] deals with L3.6pl cells. Put plainly: Rescue by exogenous native polyamines in L3.6pl cells. The format is cell-based, human. Particulars: 72 h, polyamine 1 μM or 5 μM, compound 10 at toxic dose (5 μM or higher). The protocol:
The question remained as to whether exogenous polyamines could enter and ‘rescue’ the cells back to the growth rate of untreated control. A series of experiments were conducted to determine if cells treated with compound 10 could be rescued by exogenous polyamines. To test this hypothesis, L3.6pl cells were incubated for 72 h with an increasing dose of compound 10 and a dose of one of the native polyamines (putrescine, spermidine, or spermine either at a fixed dose of 1 μM or 5 μM).
FIG. 10A is an example according to various embodiments, illustrating the inability of native polyamine putrescine (Put at 1 μM and 5 μM) to rescue L3.6pl cells treated with compound 10 (e.g., from 2-15 μM). FIG. 10B is an example according to various embodiments, illustrating inability of native polyamine spermidine (Spd at 1 μM and 5 μM) to rescue L3.6pl cells treated with compound 10 (e.g., from 2-15 μM). FIG. 10C is an example according to various embodiments, illustrating inability of the native polyamine spermine (Spm at 1 μM and 5 μM) to rescue L3.6pl cells treated with compound 10 (2-15 μM). The L3.6pl cells were incubated with 250 μM aminoguanidine (AG) for 24 h prior to the addition of compound 10, followed by 72 h incubation at 37° C. […]

The test system of assay [2] is L3.6pl cells. Briefly: Intracellular leucine and methionine after cell lysis (LCMS). It is filed as cell-based, human. Particulars: 72 h. The protocol:
This example illustrates aspects according to various embodiments pertaining to a 72 h experiment with Compound 10 in L3.6pl cells. Ten milliliters of a cell suspension containing L3.6pl human pancreatic cancer cells (50,000 cells/mL) and aminoguanidine ([…]) were placed in treated plastic Petri dishes (d=9 cm) and incubated overnight at 37° C. After 24 h, the cells were dosed with compound 10 at 2 μM, 5 μM, or 7 μM. (Note: Stock solutions of 10 at 2, 5, and 7 mM were dissolved in phosphate buffered saline (PBS) and were filtered through a 0.2 μm filter prior to use. The experiments were maintained with a total volume of 10.01 mL where 10 mL of the cell suspension was placed in a plastic dish and each compound or the equivalent PBS volume was added to make up the total volume 10.01 mL for each dish. For example, for the control experiment PBS (10 μL) was added to make up the total volume (10 mL+10 μL=10.01 mL). After 72 h incubation, the cells were collected first by pipetting off the supernatant containing floating dead cells from the culture dish as well as media and placing them into 15 mL tubes. The supernatant containing floating cells was centrifuged (4 min at 1,000 rpm). The cell-free supernatant (supernatant #1) was collected into a new 15 mL tube and quantified (˜8.6 mL) and was then stored frozen and was later quantified by LCMS to investigate the media composition of particular polyamine and amino acid analytes. The attached cells on the dish were washed with PBS (5 mL). The PBS wash was removed by suction and additional PBS (2 mL) was added and again suctioned off to provide twice-washed cells still adhered to the dish. Trypsin (2 mL) was then added to each dish and incubated (3-5 min) until all the cells were detached. Fresh media (8 mL) was added to quench the trypsin. The cell solutions were pipetted into separate 15 mL tubes and centrifuged (4 min at 1,000 rpm). The resulting supernatant was removed to provide a pellet. The pellet was suspended in PBS (10 mL) and was counted by a hemocytometer to provide cell counts for each experimental condition. The pellet was then centrifuged (4 min at 1,000 rpm) and the supernatant removed and the remaining pellet was quantified via protein and polyamine analysis.
To each cell pellet, a perchloric acid (100 μL) buffer solution (0.2M HClO4/1 M NaCl) and 0.9% NaCl (50 μL) was added. The samples were sonicated via sonic dismembranator in small bursts until samples were homogenized and cloudy. Additional perchloric acid (50 μL) buffer solution was added. The homogenized samples were then vortexed and centrifuged (10 min at 4,000 rpm). The supernatants of the respective samples (supernatant #2) were removed and quantified by calibrated pipet (˜190 μL volume). Note: 100 μL of supernatant #2 was placed into a micro-centrifuge tube for polyamine analysis by the N-dansylation HPLC protocol and the rest was placed into a different micro-centrifuge tube for analysis by LCMS of specific amino acid analytes. The respective supernatants were stored in the freezer for polyamine and LCMS quantification and the remaining protein pellet was used for the protein analysis. The protein pellet was dissolved in aq. NaOH (1 mM, 200 μL). The sample stood at room temperature with occasional vortex (45 min) and was then centrifuged (15 min at 15,000 rpm). The supernatant was collected and dissolved protein was quantified using the commercial Pierce BCA kit according to manufacturer's protocol.
This example illustrates aspects according to various embodiments pertaining to an LCMS Analysis. […]

The source of these data is patent publication US20210317090A1, “AMINO ACID DEPLETION AGENTS AS ANTIPROLIFERATIVE AGENTS” (University of Central Florida Research Foundation, Inc., priority 2018, published 2021).

Structures are written as SMILES.

As for `CC(C)CCN1CCN(C(CNCc2ccccc2)CC2CCCCC2)CC1CC(C)C.Cl.Cl.Cl` (stereo not shown) [Compound 10, Benzyl-{3-cyclohexyl-2-[3-isobutyl-4-(3-methyl-butyl)-piperazin-1-yl]-propyl}-amine trihydrochloride salt], the “rescue of treated cells by putrescine, spermidine or spermine” value with L3.6pl cells [1] is given as “none of the three native polyamines (at 1 μM or 5 μM) were able to rescue”. Also, the entries for the “Intracellular level Leucine” value in the assay with L3.6pl cells [2] (2 μM), with L3.6pl cells [2] (5 μM) and with L3.6pl cells [2] (7 μM) were 152 ± 8 pmol/mg protein, 94 ± 3 pmol/mg protein and 77 ± 1 pmol/mg protein, respectively. Besides, the figures for the “Intracellular level Methionine” value in the assay with L3.6pl cells [2] (2 μM), with L3.6pl cells [2] (5 μM) and in the assay on L3.6pl cells [2] (7 μM) were 226 ± 21 pmol/mg protein, 41 ± 23 pmol/mg protein and “Not detected”, respectively.
